Experimental data: patent publication US12534493B2, “Bridged nucleoside and nucleotide” (Liid Pharmaceuticals, Inc., priority 2020, dated 2026)

What was measured:
Type in all cases: binding
[1] = system: single-stranded RNA:5′-r(ACGAGANCAUCC)-3′, N = U; assay: Tm measurement with single-stranded RNA (base sequence identifying ability), N = U; conditions: mismatch RNA N = U; for ΔTm (N = U), in parentheses: difference from N = A; for Tm (N = U): 10 mM sodium phosphate buffer, 200 mM NaCl
Protocol: (§1) A sample solution ([…]) with final concentrations of 10 mM phosphate buffer (pH7.0), 200 mM sodium chloride, and 2.5 μM each oligonucleotide was immersed in boiling water and slowly cooled to room temperature. The sample solution was cooled to 20° C., and the measurement was started. The temperature was raised to 90° C. at a rate of 0.5° C. per minute, and the absorbance at 260 nm was plotted at intervals of 0.5° C. All Tm values were calculated by the midline method and the average of three independent measurement results was taken.
(§2) conditions: 10 mM sodium phosphate buffer (pH7.0) containing 200 mM NaCl, […] of each strand

[2] = system: single-stranded DNA: 5′-d(ACGAGAACATCC)-3′ (SEQ ID NO: 12); assay: Melting temperature (Tm) measurement, double strand-forming ability, with single-stranded DNA; conditions: duplex with single-stranded DNA SEQ ID NO: 12; for Tm: 10 mM phosphate buffer (pH7.0), 200 mM NaCl, 2.5 μM each oligonucleotide; for ΔTm/mod.: change per modification vs natural oligonucleotide
Protocol: as §1, §2

[3] = system: single-stranded RNA: 5′-r(ACGAGAACAUCC)-3′ (SEQ ID NO: 11); assay: Melting temperature (Tm) measurement, double strand-forming ability, with single-stranded RNA; conditions: for Tm (N = A): Table 2, full-match RNA N = A, 10 mM sodium phosphate buffer; for Tm (N = A) / Tm: 200 mM NaCl; for Tm / ΔTm/mod.: duplex with single-stranded RNA SEQ ID NO: 11; for Tm: 10 mM phosphate buffer (pH7.0), 2.5 μM each oligonucleotide; for ΔTm/mod.: change per modification vs natural oligonucleotide
Protocol: as §1, §2

[4] = system: single-stranded RNA:5′-r(ACGAGANCAUCC)-3′, N = G; assay: Tm measurement with single-stranded RNA (base sequence identifying ability), N = G; conditions: mismatch RNA N = G; for ΔTm (N = G), in parentheses: difference from N = A; for Tm (N = G): 10 mM sodium phosphate buffer, 200 mM NaCl
Protocol: as §1, §2

[5] = system: single-stranded RNA:5′-r(ACGAGANCAUCC)-3′, N = C; assay: Tm measurement with single-stranded RNA (base sequence identifying ability), N = C; conditions: mismatch RNA N = C; for ΔTm (N = C), in parentheses: difference from N = A; for Tm (N = C): 10 mM sodium phosphate buffer, 200 mM NaCl
Protocol: as §1, §2

| Substance | ΔTm (N = U), in parentheses [1] | Tm (N = U) [1] | Tm [2] | Tm (N = A) [3] | Tm [3] | ΔTm (N = G), in parentheses [4] | Tm (N = G) [4] | ΔTm (N = C), in parentheses [5] | Tm (N = C) [5] | ΔTm/mod. [2] | ΔTm/mod. [3] |
| --- | --- | --- | --- | --- | --- | --- | --- | --- | --- | --- | --- |
| 5′-GGATGTTCTCGT-3′: unmodified (natural) oligonucleotide, SEQ ID NO: 1 (unmodified DNA) | -12 º C. | 40 °C | 51 °C | 52 °C | 52 °C | -4 º C. | 48 °C | -14 º C. | 38 °C |  |  |
| 5′-GGATGYTCTCGT-3′: modified oligonucleotide with one Y modification; Y not defined in the visible text (DNA GGATGTTCTCGT; Y modified nucleotide; misc_difference (6)..(6) LNA) | -13 º C. | 45 °C | 54 °C | 58 °C | 58 °C | -5 º C. | 53 °C | -14 º C. | 44 °C | +3.0 °C | +6.0 °C |
| 5′-GGATGZTCTCGT-3′: modified oligonucleotide with one Z modification; Z not defined in the visible text (DNA GGATGTTCTCGT; Z modified nucleotide; misc_difference (6)..(6) ENA) | -13 º C. | 45 °C | 52 °C | 58 °C | 58 °C | -4 º C. | 54 °C | -15 º C. | 43 °C | +1.0 °C | +6.0 °C |
| 5′-GGATGXTCTCGT-3′: modified oligonucleotide with one X modification; X not defined in the visible text (DNA GGATGTTCTCGT; DNA oligonucleotide with modified nucleotide X, X not given here, further chemistry not given here) | -14 º C. | 44 °C | 53 °C | 58 °C | 58 °C | -5 º C. | 53 °C | -15 º C. | 43 °C | +2.0 °C | +6.0 °C |
